15 compounds from patent US6498179B1, “Oxazole derivatives, their production and use” (Takeda Chemical Industries, Ltd., priority 1996, dated 2002) can be followed below.

The term melting point denotes the temperature, or range, at which the solid turns liquid.

Read-outs that look alike come from different tables or passages of the source.

The subject of series [1] is KKA^y mice. As to the kind of experiment: Test for blood sugar depression in mice. In kind it is in vivo. The conditions noted are these: Mus musculus, fasted male KKA^y mice, oral 30 mg/kg, compared with control group. The method, then: After being fasted for 20 hours, 9- to 12-week-old, male KKA^y mice (five mice in each group) were orally given the test compound at a dose of 30 mg/kg/10 ml through a stomach tube. Control mice were orally given 5% gum arabic solution. Blood samples (70 μl) were obtained from orbital venous plexus through capillary tube before and 60 and 120 minutes after the administration of the test compound. Blood glucose was determined according to a glucose oxidase method using a commercial kit (Iatrochem, GIU(A), Iatron Labs. Inc.). Blood glucose level at 60 or 120 minutes of the test groups was compared with that of control group, and was shown as blood glucose depression (%) (Table 1).

Series [2] has as its system MIN6 cells. The series is described as follows: Insulinotropic effect on MIN6 cells. In kind it is cell-based, mouse. Conditions: compound 10 μM, 12.5 mM glucose, 2 hours, percentage of control. The method, then:
MIN6 cells established from mouse beta cell tumor were cultured in DMEM supplemented with 15% fetal bovine serum on 12-well plate at 37° C. in 5% CO2, and were used at the stage of subconfluency. Cells were washed twice with PBS and incubated in Krebs-Ringer HEPES(KRH) containing with 0.1 mM glucose for 30 minutes. Then they were incubated in KRH containing with 12.5 mM glucose and 0.1% DMSO (control) or compound (10 μM) for 2 hours. Medium was collected and insulin concentration was measured using a commercial radioimmunoassay kit (Amarsham Inc.). The plate was washed once with PBS and cellular protein content was determined by the method of Lowrey et al. (J. Biol. Chem. 193, 265-275, 1951). Insulinotropic activity of the compound was indicated as percentage of control (Table 2).

Where [3] appears, read: 1 h, 60 minutes after administration, read-out: Degree of Blood Glucose Depression (%) After 60 minutes.
Where [4] appears, read: 2 h, 120 minutes after administration, read-out: Degree of Blood Glucose Depression (%) After 120 minutes.

Consider `O=C(O)CCc1oc(-n2cccn2)nc1-c1ccc(Cl)cc1` [Example 28, 4-(4-chlorophenyl)-2-(1-pyrazolyl)-5-oxazolepropionic acid], for which the inhibition in vivo at 30 mg/kg in series [1] (setting [3]) came to 24%; in series [1] (setting [4]), 33%.
Turning to `Cc1nccn1-c1nc(-c2ccc(Cl)cc2)c(CCCCO)o1` [Example 65, 4-(4-chlorophenyl)-2-(2-methyl-1-imidazolyl)-5-oxazolebutanol], the melting point was 110 to 111 °C. Further, in series [2], the “Insulin secretion-promoting effect (%)” value worked out at 397%.
In the same order, the values of `Cc1nccn1-c1nc(-c2ccc(Cl)cc2)c(CCCn2ccnc2)o1` [Example 72, 4-(4-chlorophenyl)-5-[3-(1-imidazolyl)propyl]-2-(2-methyl-1-imidazolyl)oxazole] are 133 to 134 °C and 303%.
Take `CC(C)c1nccn1-c1nc(-c2ccc(Cl)cc2)c(CCC(=O)O)o1` [Example 31, 4-(4-chlorophenyl)-2-(2-isopropyl-1-imidazolyl)-5-oxazolepropionic acid]: the inhibition in vivo at 30 mg/kg worked out at 27% in series [1] (setting [3]) and 28% in series [1] (setting [4]).
In turn, `Cc1nccn1-c1nc(-c2ccc(Cl)cc2)c(CCCCn2ccnc2)o1` [Example 89, 4-(4-chlorophenyl)-5-[4-(1-imidazolyl)butyl]-2-(2-methyl-1-imidazolyl)oxazole] came in with a melting point of 84 to 85 °C. Besides, in series [2], the “Insulin secretion-promoting effect (%)” value came out at 385%.
Regarding `CCc1nccn1-c1nc(-c2ccc(Cl)cc2)c(CCC(=O)O)o1` [Example 26, 4-(4-chlorophenyl)-2-(2-ethyl-1-imidazolyl)-5-oxazolepropionic acid], the inhibition in vivo at 30 mg/kg was 32% in series [1] (setting [3]) and 27% in series [1] (setting [4]).
Regarding `Cc1nccn1-c1nc(-c2ccc(Cl)cc2)c(CCCO)o1` [Example 36, 4-(4-chlorophenyl)-2-(2-methyl-1-imidazolyl)-5-oxazolepropanol], the “Insulin secretion-promoting effect (%)” value in series [2] came out at 272%. Besides, the values for the inhibition in vivo at 30 mg/kg in series [1] (setting [3]) and in series [1] (setting [4]) were 23% and 18%, respectively.
The compound `Cc1nc(-c2nc(-c3ccc(Cl)cc3)c(CCCCCO)o2)c[nH]1` [Example 83, 4-(4-chlorophenyl)-2-(2-methyl-imidazolyl)-5-oxazolepentanol] yielded a melting point of 94 to 95 °C. In addition, the “Insulin secretion-promoting effect (%)” value in series [2] was 359%.
On to `CSc1nccn1-c1nc(-c2ccc(Cl)cc2)c(CCC(=O)O)o1` [Example 32, 4-(4-chlorophenyl)-2-(2-methylthio-1-imidazolyl)-5-oxazolep ropionic acid], for which the inhibition in vivo at 30 mg/kg in series [1] (setting [3]) was 25%; in series [1] (setting [4]), 28%.
In the same order, the values of `Cc1nccn1-c1nc(-c2ccc(Cl)cc2)c(CCC(=O)O)o1` [Example 25, 4-(4-chlorophenyl)-2-(2-methyl-1-imidazolyl)-5-oxazolepropionic acid] are 38% and 27%.
The like results for `O=C(O)CCc1oc(Sc2ccccn2)nc1-c1ccc(Cl)cc1` [Example 15, 4-(4-chlorophenyl)-2-(2-pyridylthio)-5-oxazolepropionic acid] were, in that order, 22% and 26%.
For the compound `Cc1nccn1-c1nc(-c2ccc(Cl)cc2)c(CCC2=NCCS2)o1` [Example 60, 4-(4-chlorophenyl)-2-(2-methyl-1-imidazolyl)-5-[2-(2-thiazolin-2-yl)ethyl]oxazole], the melting point was 73 to 74 °C.
On the same count and under the same terms, in the case of `CCc1nccn1-c1nc(-c2ccc(Cl)cc2)c(CCC2=NCCO2)o1` [Example 50, 4-(4-chlorophenyl)-2-(2-ethyl-1-imidazolyl)-5-[2-(2-oxazolin-2-yl)ethyl]oxazole] it was 53 to 54 °C; in that of `CNc1nc(-c2ccc(Cl)cc2)c(CCC(=O)O)o1` [Example 16, 4-(4-chlorophenyl)-2-methylamino-5-oxazolepropionic acid], 217 to 218 °C.
Regarding `O=C(O)CCc1oc(-n2cnc3ccccc32)nc1-c1ccc(Cl)cc1` [Example 34, 4-(4-chlorophenyl)-2-(1-benzimidazolyl)-5-oxazolepropionic acid], the values for the inhibition in vivo at 30 mg/kg in series [1] (setting [3]) and in series [1] (setting [4]) were 27% and 25%, respectively.
